The test system of series [1] is A549 human non-small cell lung tumor cells. The experiment in a line: SRB (sulforhodamine B) assay, antiproliferative activity, A549. The series is classed as cell-based. Here is the method:
(§1) Anticancer activities of the inclusion compounds synthesized in Synthesis Examples 1 and 2 were measured as follows.
(§2) First, the oxaliplatin-cucurbitu[7]ril inclusion compounds synthesized in Synthesis Examples 1 and 2, were freeze-dried to prepare samples. Tumor cells used were A 549 (human non-small cell lung), SKOV-3 (human ovarian), SKMEL-2 (human melanoma), XF498 (human CNS), and HCT-15 (human colon), and analyzed by SRB (sulforhodamine B) assay.

Series [2] deals with SKOV-3 human ovarian tumor cells. The experiment in a line: SRB (sulforhodamine B) assay, antiproliferative activity, SKOV-3. The series is classed as cell-based. Here is the method:
as §1, §2

In series [3] the test system is SKMEL-2 human melanoma tumor cells. In words: SRB (sulforhodamine B) assay, antiproliferative activity, SKMEL-2. The format is cell-based. How it is done:
as §1, §2

Series [4] has as its system XF-498 human CNS tumor cells. The experiment in a line: SRB (sulforhodamine B) assay, antiproliferative activity, XF-498. The series is classed as cell-based. How it is done:
as §1, §2

The test system of series [5] is HCT-15 human colon tumor cells. In words: SRB (sulforhodamine B) assay, antiproliferative activity, HCT-15. The series is classed as cell-based. Here is the method:
as §1, §2

Series [6] is described as follows: Isothermal microcalorimeter titration of oxaliplatin and cucurbitu[7]ril. The conditions noted are these: 25° C., 20 mM oxaliplatin, 1 mM cucurbitu[7]ril. The format is physicochemical.

For `N[C@@H]1CCCC[C@H]1N.O=C([O-])C(=O)[O-].[Pt+2]` (relative stereo) [Oxaliplatin, (trans-L-diaminocyclohexane)oxalatoplatinum (II)], the “Antiproliferative activity (ED50/μM)” value in series [1] worked out at 0.42 µM; in series [2], 0.67 µM; in series [3], 0.97 µM; in series [4], 0.49 µM; in series [5] it was 0.90 µM. Moreover, the binding constant in series [6] is 2.39×10^5(±0.4) M^−1. This molecule also yielded a binding enthalpy in series [6] of -6.33 kcal/mol.
With `N.N.[Cl][Pt][Cl]` [Cisplatin], the “Antiproliferative activity (ED50/μM)” value in series [1] was found to be 1.17 µM; in series [2], 2.87 µM; in series [3], 3.08 µM; in series [4], 0.46 µM; in series [5], 1.32 µM.

For the origin of these results see patent US7459471B2, “Inclusion compound comprising cucurbituril derivatives as host molecule and pharmaceutical composition comprising the same” (Postech Foundation, priority 2001, dated 2008).
